From patent US20070031507A1, “Bactericide for MRSA” (priority 2001, published 2007)

Tested on: MRSA (methicillin resistant Staphylococcus aureus)
Assay: Antibacterial test: survival ratio of MRSA versus cultivation time in medium
Format: cell-based
Conditions: physiological saline, dilution 10^-3, pH 12.7
Method: Antibacterial tests were then performed. The relation between the cultivation time (minute) of MRSA in a cultivation medium and the survival ratio (%) of the bacteria was measured in the test shown in Table 1. The cultivation media of MRSA were physiological saline ([…]), physiological saline containing the bactericide for MRSA of the invention ([…]) and physiological saline containing a reagent NaOH (medium 3). The degree of dilution of both the bactericide for MRSA and the reagent (NaOH) was 10^−3, and pH of both solutions was 12.7.

Structure (SMILES): [Na+].[OH-] [Medium 3, NaOH]
- survival ratio of the bacteria (cultivation time 0 minutes): 100%
- survival ratio of the bacteria (cultivation time 15 minutes): Measurement was impossible
- survival ratio of the bacteria (cultivation time 30 minutes): 0.0057%
